Reference: patent US5872138A, “Thrombin inhibitors” (Merck & Co., Inc., priority 1997, dated 1999)
Counter-ions that a name gives are not always drawn. Like-named read-outs stand apart in the source and are kept apart here. One block for each compound: values may come before it.

Target: T1, human a-thrombin (Homo sapiens, UniProt P00734)
T1 construct: human a-thrombin
Experiment: In vitro assay for determining proteinase inhibition (thrombin Ki)
Assay type: biochemical
Conditions: 25° C., pH 7.4
Procedure: In vitro assay for determining proteinase inhibition Assays of human a-thrombin and human trypsin were performed at 25° C. in 0.05M TRIS buffer pH 7.4, 0.15M NaCl, 0.1% PEG. Trypsin assays also contained 1 mM CaCl2. In assays wherein rates of hydrolysis of a p-nitroanilide (pna) substrate were determined, a Thermomax 96-well plate reader was used to measure (at 405 nm) the time dependent appearance of p-nitroaniline. […] Activity assays were performed by diluting a stock solution of substrate at least tenfold to a final concentration 0.5 Km into a solution containing enzyme or enzyme equilibrated with inhibitor. Times required to achieve equilibration between enzyme and inhibitor were determined in control experiments. Initial velocities of product formation in the absence (Vo) or presence of inhibitor (Vi) were measured. Assuming competitive inhibition, and that unity is negligible compared Km /[S], […] (where [S], [I], and e respectively represent the total concentrations, of substrate, inhibitor and enzyme), the equilibrium constant (Ki) for dissociation of the inhibitor from the enzyme can be obtained from the dependence of Vo /Vi on [I] shown in equation 1.

Ki (Table I, read-out: Ki (thr)): 100 to 1000 nM
Compound: Nc1cc[n+](Cc2ccc(OCc3ccccc3)cc2)cc1

Ki (Table I, read-out: Ki (thr)): > 1000 nM
Compound: Nc1cc[n+](Cc2ccc(-c3ccccc3)cc2)cc1

Ki (Table I, read-out: Ki (thr)): > 1000 nM
Compound: Nc1cc[n+](Cc2ccc(OCc3ccccc3)nc2)cc1

Ki (Table I, read-out: Ki (thr)): > 1000 nM
Compound: Nc1cc[n+](Cc2ccc(OCc3ccccc3)cn2)cc1

Ki (Table I, read-out: Ki (thr)): > 1000 nM
Compound: COc1cc(C[n+]2ccc(N)cc2)ccc1OCc1ccccc1

Ki (Table I, read-out: Ki (thr)): > 1000 nM
Compound: Nc1cc[n+](Cc2ccc(OCc3ccccc3)c(OCc3ccccc3)c2)cc1

Ki (Table 2, read-out: Ki (thr)): 100 to 1000 nM
Compound: c1cc(NCc2ccc(OC(C3CCCCC3)C3CC3)cc2)ccn1 (stereo not drawn)

Ki (Table 2, read-out: Ki (thr)): > 1000 nM
Compound: c1ccc(CSc2ccc(CNc3ccncc3)cc2)cc1

Ki (Table 2, read-out: Ki (thr)): > 1000 nM
Compound: c1cc(NCc2ccc(NCC3CCCCC3)cc2)ccn1

Ki (Table 2, read-out: Ki (thr)): > 1000 nM
Compound: c1cc(NCc2ccc(OCC(C3CCCCC3)C3CCCCC3)cc2)ccn1

Ki (Table 2, read-out: Ki (thr)): > 1000 nM
Compound: c1ccc(CNc2ccc(CNc3ccncc3)cc2)cc1

Ki (Table 2, read-out: Ki (thr)): > 1000 nM
Compound: COC(=O)C(Oc1ccc(CNc2ccncc2)cc1)c1ccccc1 (stereo not drawn)

Ki (Table 2, read-out: Ki (thr)): > 1000 nM
Compound: NC(=O)C(Oc1ccc(CNc2ccncc2)cc1)c1ccccc1 (stereo not drawn)

Ki (Table 2, read-out: Ki (thr)): > 1000 nM
Compound: c1ccc(C(Oc2ccc(CNc3ccncc3)cc2)C2CCCCC2)cc1 (stereo not drawn)

Ki (Table 2, read-out: Ki (thr)): > 1000 nM
Compound: c1cc(NCc2ccc(OCCCCC3CCCCC3)cc2)ccn1

Ki (Table 2, read-out: Ki (thr)): > 1000 nM
Compound: CC(C)C(Oc1ccc(CNc2ccncc2)cc1)c1ccc2c(c1)OCO2 (stereo not drawn)

Ki (Table 2, read-out: Ki (thr)): > 1000 nM
Compound: CCC(Oc1ccc(CNc2ccncc2)cc1)c1ccccc1 (stereo not drawn)

Ki (Table 2, read-out: Ki (thr)): > 1000 nM
Compound: CC(Oc1ccc(CNc2ccncc2)cc1)c1ccccc1 (stereo not drawn)

Ki (Table 3, read-out: Ki(th)): 4400 nM
Compound: OCCc1cc(CNc2ccncc2)ccc1OCC1CCCCC1

Ki (Table 3, read-out: Ki(th)): 3200 nM
Compound: c1cc(NCc2ccc(OCC3CCCCC3)c(C3CC3)c2)ccn1

Ki (Table 3, read-out: Ki(th)): 800 nM
Compound: CCCc1cc(CNc2ccncc2)ccc1OC(c1ccccc1)C1CC1 (stereo not drawn)

Ki (Table 3, read-out: Ki(th)): 1500 nM
Compound: CC(C)Cc1cc(CNc2ccncc2)ccc1OCC1CCCCC1

Ki (Table 3, read-out: Ki(th)): 1300 nM
Compound: CCCc1cc(CNc2ccncc2)ccc1OC(Cc1ccccc1)C1CC1 (stereo not drawn)

Ki (Table 3, read-out: Ki(th)): 260 nM
Compound: C=Cc1cc(CNc2ccncc2)ccc1OCC1CCCCC1

Ki (Table 3, read-out: Ki(th)): 6400 nM
Compound: c1ccc(-c2cc(OCC3CCCCC3)ccc2CNc2ccncc2)cc1

Ki (Table 3, read-out: Ki(th)): 3800 nM
Compound: CCCc1cc(CNc2ccncc2)cc(CO)c1OCC1CCCCC1

Ki (Table 3, read-out: Ki(th)): 220 nM
Compound: CCCc1cc(CNc2ccncc2)ccc1OCC12CC3CC(CC(C3)C1)C2

Ki (Table 3, read-out: Ki(th)): 740 nM
Compound: CCCc1cc(CNc2ccncc2)ccc1OCC1CCCCCC1

Ki (Table 3, read-out: Ki(th)): 3200 nM
Compound: COc1cc(OCC2CCCCC2)ccc1CNc1ccncc1

Ki (Table 3, read-out: Ki(th)): 500 nM
Compound: CCCc1cc(CNc2ccncc2)ccc1OC(Cc1ccccc1)C(C)C (stereo not drawn)

Ki (Table 3, read-out: Ki(th)): > 900 nM
Compound: CCCc1cc(CNc2ccncc2)c(Cc2ccccc2)cc1OCC1CCCCC1

Ki (Table 3, read-out: Ki(th)): 1600 nM
Compound: Oc1cc(OCC2CCCCC2)ccc1CNc1ccncc1

Ki (Table 3, read-out: Ki(th)): 320 nM
Compound: CCCc1cc(CNc2ccncc2)ccc1OC(c1ccccc1)c1ccccc1

Ki (Table 3, read-out: Ki(th)): 1800 nM
Compound: CCCc1cc(CNc2ccncc2)ccc1OCc1ccc(OC)cc1

Ki (Table 3, read-out: Ki(th)): 1800 nM
Compound: CCCc1cc(CNc2ccncc2)ccc1OCc1ccccc1

Ki (Table 4, read-out: Ki (thr)): > 10000 nM
Compound: c1ccc(-c2cc(CNc3ccncc3)ccc2OCC2CCCCC2)cc1

Ki (Table 4, read-out: Ki (thr)): > 10000 nM
Compound: OCc1cc(CNc2ccncc2)ccc1OCC1CCCCC1

Ki (Table 4, read-out: Ki (thr)): > 10000 nM
Compound: NCc1cc(CNc2ccncc2)ccc1OCC1CCCCC1

Ki (Table 4, read-out: Ki (thr)): 1000 to 10000 nM
Compound: CNCc1cc(CNc2ccncc2)ccc1OCC1CCCCC1

Ki (Table 4, read-out: Ki (thr)): > 10000 nM
Compound: CNC(=O)c1cc(CNc2ccncc2)ccc1OCC1CCCCC1

Ki (Table 4, read-out: Ki (thr)): > 10000 nM
Compound: CC(C)(C)OCCc1cc(CNc2ccncc2)ccc1OCC1CCCCC1

Ki (Table 4, read-out: Ki (thr)): 1000 to 10000 nM
Compound: CCCc1cc(CNc2ccncc2)cc(CN2CCCCC2)c1OCC1CCCCC1

Ki (Table 4, read-out: Ki (thr)): > 10000 nM
Compound: CCCc1cc(CN(CC)c2ccncc2)ccc1OCC1CCCCC1

Ki (Table 4, read-out: Ki (thr)): 1000 to 10000 nM
Compound: CCCc1cc(CNc2ccncc2C)ccc1OCC1CCCCC1

Ki (Table 4, read-out: Ki (thr)): 100 to 1000 nM
Compound: CCCc1cc(CNc2ccncc2)ccc1OCC1CC2C=CC1C2 (stereo not drawn)

Ki (Table 4, read-out: Ki (thr)): 1000 to 10000 nM
Compound: CCCc1cc(CNc2ccncc2)ccc1OCc1cccc2ccccc12

Ki (Table 6, read-out: Ki(thr)): 300 nM
Compound: CCCc1cc(Cc2ccc(C(=N)N)cc2)ccc1OCC1CCCCC1

Ki (Table 6, read-out: Ki(thr)): 280 nM
Compound: CCCc1cc(Cc2ccc(C(=N)N)cc2)ccc1OC(C(C)C)C1CCCCC1 (stereo not drawn)

Ki (Table 6, read-out: Ki(thr)): 102 nM
Compound: Cc1cc(Cc2ccc(C(=N)N)cc2)ccc1OCC1CCCCC1

Ki (Table 6, read-out: Ki(thr)): 77 nM
Compound: CCc1cc(Cc2ccc(C(=N)N)cc2)ccc1OCC1CCCCC1

Ki (Table 6, read-out: Ki(thr)): 20 nM
Compound: Cc1cc(Cc2ccc(C(=N)N)cc2)ccc1OC(C(C)C)C1CCCCC1 (stereo not drawn)

Ki (Table 6, read-out: Ki(thr)): 20 nM
Compound: CCc1cc(Cc2ccc(C(=N)N)cc2)ccc1OC(C(C)C)C1CCCCC1 (stereo not drawn)

Ki (Table 7, read-out: Ki(thr)): 1000 to 10000 nM
Compound: c1cc(NCc2ccc(CCC3CCCCC3)cc2)ccn1

Ki (Table 7, read-out: Ki(thr)): 1000 to 10000 nM
Compound: c1ccc(OCc2ccc(CNc3ccncc3)cc2)cc1

Ki (Table I, read-out: Ki (thr)): 100 to 1000 nM
Compound: 4-amino-1-(4-(1-phenyl-1-carbomethoxy)methoxybenzyl)pyridinium bromide

Ki (Table 3, read-out: Ki(th)): 1800 nM
Compound: c1ccc(Cc2cc(OCC3CCCCC3)ccc2CNc2ccncc2)cc1 [4'-(4-cyclohexylmethyloxy-2-benzylphenylmethyl)-aminopyridine]

Ki (Table 3, read-out: Ki(th)): 1800 nM
Compound: c1ccc(COc2cc(OCC3CCCCC3)ccc2CNc2ccncc2)cc1 [4-(4-cyclohexylmethyloxy-2-benzyloxybenzyl)aminopyridine]

Ki (Table 2, read-out: Ki (thr)): > 1000 nM
Compound: c1ccc(CC(Cc2ccccc2)Oc2ccc(CNc3ccncc3)cc2)cc1 [4-[4-(1,3-diphenyl-2-propoxy)benzylamino]pyridine]

Ki (Table 2, read-out: Ki (thr)): > 1000 nM
Compound: c1ccc(C(COc2ccc(CNc3ccncc3)cc2)c2ccccc2)cc1 [4-[4-(2,2-diphenylethoxy)benzylamino]pyridine]

Ki (Table 2, read-out: Ki (thr)): > 1000 nM
Compound: c1cc(NCc2ccc(OCCC3CCCCC3)cc2)ccn1 [4-[4-(2-cyclohexylethoxy)benzylamino]pyridine]

Ki (Table 2, read-out: Ki (thr)): > 1000 nM
Compound: CC(C)C(Oc1ccc(CNc2ccncc2)cc1)c1ccccc1 (stereo not drawn) [4-[4-(2-methyl-1-phenylpropoxy)benzylamino]pyridine]

Ki (Table 2, read-out: Ki (thr)): > 1000 nM
Compound: c1cc(NCc2ccc(OCc3ccc4c(c3)OCO4)cc2)ccn1 [4-[4-(3,4-methylenedioxybenzyloxy)benzylamino]pyridine]

Ki (Table 2, read-out: Ki (thr)): > 1000 nM
Compound: c1cc(NCc2ccc(OC(C3CCCCC3)C3CCCCC3)cc2)ccn1 [4-[4-(dicyclohexylmethoxy)-benzylamino]pyridine]

Ki (Table I, read-out: Ki (thr)): < 100 nM
Compound: Nc1cc[n+](Cc2ccc(OC(c3ccccc3)c3ccccc3)cc2)cc1 [4-amino-1-(4-(1,1-diphenylmethoxy)benzylpyridinium bromide]

Ki (Table I, read-out: Ki (thr)): 100 to 1000 nM
Compound: Nc1cc[n+](Cc2ccc(OCC(C3CCCCC3)C3CCCCC3)cc2)cc1 [4-amino-1-(4-(2,2-dicyclohexyl-1-ethoxy)benzyl)pyridinium bromide]

Ki (Table I, read-out: Ki (thr)): 100 to 1000 nM
Compound: Nc1cc[n+](Cc2ccc(OC(CCc3ccccc3)c3ccccc3)cc2)cc1 (stereo not drawn) [4-amino-1-[4-(1,3-diphenyl-1-propoxy)benzyl]pyridinium bromide]

Ki (Table I, read-out: Ki (thr)): 100 to 1000 nM
Compound: Nc1cc[n+](Cc2ccc(OCC(c3ccccc3)c3ccccc3)cc2)cc1 [4-amino-1-[4-(2,2-diphenylethoxy)benzyl]pyridinium bromide]

Ki (Table I, read-out: Ki (thr)): 100 to 1000 nM
Compound: Nc1cc[n+](Cc2ccc(OC(C3CCCCC3)C3CCCCC3)cc2)cc1 [4-amino-1-[4-(dicyclohexylmethoxy)benzyl]pyridinium bromide]

Ki (Table 3, read-out: Ki(th)): 2900 nM
Compound: Nc1cc(CNc2ccncc2)ccc1OCC1CCCCC1 [4-{[3-amino-4-(cyclohexylmethyloxy)phenyl]methylamino}pyridine dihydrochloride]

Ki (Table 3, read-out: Ki(th)): 640 nM
Compound: CCc1cc(CNc2ccncc2)ccc1OCC1CCCCC1 [4-{[3-ethyl-4-(cyclohexylmethyloxy)phenyl]methylamino}pyridine]

Ki (Table 3, read-out: Ki(th)): 500 nM
Compound: CCCc1cc(CNc2ccncc2)ccc1OCC1CCCCC1 [4-{[3-propyl-4-(cyclohexylmethyloxy)phenyl]methylamino}pyridine]

Ki (Table 6, read-out: Ki(thr)): 170 nM
Compound: N=C(N)c1ccc(Cc2ccc(OCC3CCCCC3)cc2)cc1 [4-{[4-(Cyclohexylmethyloxy)phenyl]methyl}-benzamidine hydrochloride]

Ki (Table 6, read-out: Ki(thr)): 390 nM
Compound: N=C(N)c1ccc(Cc2ccc(OCc3ccccc3)cc2)cc1 [4-{[4-(Phenylmethyloxy)phenyl]methyl}benzamidine hydrochloride]

Ki (Table 2, read-out: Ki (thr)): > 1000 nM
Compound: c1ccc(C(Oc2ccc(CNc3ccncc3)cc2)c2ccccc2)cc1 [N-4-(1,1-diphenylmethoxy)benzylaminopyridine]

Ki (Table 2, read-out: Ki (thr)): > 1000 nM
Compound: c1ccc(COc2ccc(CNc3ccncc3)cc2)cc1 [N-4-(4-benzyloxybenzyl)aminopyridine]

Ki (Table 2, read-out: Ki (thr)): > 1000 nM
Compound: c1cc(NCc2ccc(OCC3CCCCC3)cc2)ccn1 [N-4-(cyclohexylmethoxy)benzylaminopyridine]

Ki (Table 5, read-out: Ki(thr)): 1000 to 10000 nM
Compound: N=C(N)N1CCN(S(=O)(=O)c2ccc(OCc3ccccc3)cc2)CC1 [N-((4-benzyloxy)phenylsulfonyl)-N'-aminomethyliminopiperazine]

Ki (Table 5, read-out: Ki(thr)): 100 to 1000 nM
Compound: CCc1cc(S(=O)(=O)N2CCN(C(=N)N)CC2)ccc1OCC1CCCCC1 [N-((4-cyclohexylmethyloxy)-3-ethyl-phenylsulfonyl)-N'-aminomethyliminopiperazine]

Ki (Table 3, read-out: Ki(th)): 3200 nM
Compound: CC(C)CCc1cc(CNc2ccncc2)ccc1OCC1CCCCC1 [drawing 160]

Ki (Table 4, read-out: Ki (thr)): 1000 to 10000 nM
Compound: CC(C)CCc1cc(CNc2ccncc2)ccc1OCC1CCCCC1 [drawing 174]

Ki (Table 4, read-out: Ki (thr)): 1000 to 10000 nM
Compound: CCCc1cc(CNc2ccncc2)ccc1OCCC(C)C [i-butyl]
